Structures are written as SMILES. Counter-ions that a name gives are not always drawn.

This assay relates to Ki-67 in GC PDX tissues. The experiment in a line: Immunohistochemistry staining of Ki-67 in xenograft tissues. It counts as in vivo, NOD/SCID mice. The following applies: day 22 of treatment. Here is the method:
After mice were sacrificed, xenograft tissues were isolated, and formalin-fixed paraffin embedded (FFPE) tissue sections were prepared. After deparaffinization, hydration, endogenous peroxidase treatment, and retrieval, 4-μm-thick FFPE sections were incubated with primary antibodies (1:100) overnight at 4 °C. The signal was assayed after incubation with IgG-HRP polymer (ZSGB-BIO, Beijing, China) and diaminobenzidine substrate. Sections were interpreted by pathologists from the Department of Pathology of Peking University Cancer Hospital who were blinded to this study. The scoring standard of Ki-67 was consistent with a previous report.
A PDX model was established by subcutaneously transplanting tumor tissues of a patient into NOD/SCID mice and PDX 1–5 indicated PDX models from 5 different GC patients. PDX tissues were subcutaneously inoculated into mice, and when the tumor size reached 150–250 mm^3, mice (n = 5 in each group) were treated with buffer control or inhibitors. Tumor volumes were presented as mean ± SD. The antitumor activity is depicted by tumor growth inhibition (TGI). […] (ΔT = tumor volume change of the drug-treated group, ΔC = tumor volume change of the control group on the final day of the study). *p < 0.05, **p < 0.01, ***p < 0.001. b Immunohistochemical staining for Ki-67 of xenografts on day 22 of treatment from four PDX models. The ki-67 index, marker of cell proliferation, was calculated as the proportion of positive tumor cell nuclei in all tumor cells examined and labeled in red in the images. Scale bar represents 100 µm TEXT PRINTED IN THE PICTURE: (b) Vehicle: PDX 2: 100%; PDX 3: 70%; PDX 4: 70%; PDX 5: 40% | (b) Irinotecan: PDX 2: 60%; PDX 3: 70%; PDX 4: 60%; PDX 5: 50% | (b) Gimatecan: PDX 2: 60%; PDX 3: 10%; PDX 4: 40%; PDX 5: 10% DOUBTS OF THE COPYIST ABOUT THIS PICTURE: Vehicle, PDX 3: 70% or 20% (blurred red print on the image) / Vehicle, PDX 4: 70% or 20% / Vehicle, PDX 5: 40%, first digit blurred / Irinotecan, PDX 2: 60% or 80% or 50% / Irinotecan, PDX 3: 70% or 20% / Irinotecan, PDX 4: 60% or 50% or 80% / Irinotecan, PDX 5: 50% or 60% or 30% / Gimatecan, PDX 2: 60% or 50% or 80% / Gimatecan, PDX 4: 40%, first digit blurred / The measure of the percentages in panel b is not printed in the picture

As for `CC[C@@]1(O)C(=O)OCc2c1cc1n(c2=O)Cc2c-1nc1ccccc1c2/C=N/OC(C)(C)C` [Gimatecan, 7-t-butoxyiminomethylcamptothecin], the “Ki-67 (%)” value came to 60% (PDX model 2, control 100); 10% (PDX model 3, control 70); 40% (PDX model 4, control 70); 10% (PDX model 5, control 40).
For the compound `CCc1c2c(nc3ccc(OC(=O)N4CCC(N5CCCCC5)CC4)cc13)-c1cc3c(c(=O)n1C2)COC(=O)[C@]3(O)CC` [Irinotecan, irinotecan hydrochloride], the “Ki-67 (%)” value is on record as 60% (PDX model 2, control 100); 70% (PDX model 3, control 70); 60% (PDX model 4, control 70); 50% (PDX model 5, control 40).
